The subject of test [1] is MART-1, TYRP-2, TYRP-1, PMEL17, MAGEA1, MCSP, MTf, MCAM. As to conditions: melanoma cell lines, U0126 20 μM, 48 hours (FIG. 5). The procedure:
Cells were seeded in 6-well tissue culture dishes at a subconfluent density and allowed to attach overnight. For harvesting cell lysates, media was removed, cells were briefly washed with serum-free media and then 1× Tris-glycine SDS sample buffer (Invitrogen, Carlsbad, Calif.) supplemented with 10 mM dithiothreitol (Sigma) was added directly to the wells. Cell lysates were then collected and boiled for 10 minutes. For preparing conditioned media, drug treatments were performed in a minimum volume of growth media (1.5 mL/well). Following 48 hours of incubation, conditioned media was collected, briefly microfuged, mixed with an equal volume of 2× Tris-glycine SDS sample buffer (Invitrogen, Carlsbad, Calif.) supplemented with 20 mM dithiothreitol (Sigma) and boiled for 10 minutes. For cell lysates, samples were quantified and an equal quantity of protein/lane was resolved on 4-20% gradient polyacrylamide gels (Invitrogen) and then transferred to nitrocellulose filters (Invitrogen). The volume of conditioned media loaded/lane was adjusted based on the protein concentration determined in the respective cell lysates. […]

Test [2] concerns phospho-ERK (pp-ERK). Briefly: Immunoblotting for phospho-ERK (level of ERK activation). Type of test: cell-based, human. The text has this: In the experiment presented in FIG. 2A, potential inhibition of the ERK pathway was investigated by immunoblotting for phospho-ERK (pp-ERK), which represents the active form of this signaling molecule.
Test [3] has as its system GPNMB surface expression on A375 melanoma cells. As to the kind of experiment: Flow cytometry of GPNMB surface expression, A375 cells. The settings on record: for GPNMB surface expression, flow cytometry GeoMean: A375, CR011 (anti-GPNMB) primary antibody. Type of test: cell-based, human. The procedure:
(§1) Cells were seeded in 6-well tissue culture dishes at a subconfluent density and allowed to attach overnight. The following day, cells were treated as indicated in the figures/legends, harvested with versene (Invitrogen), washed with PBS and incubated with primary antibody (10 μg/mL) diluted in staining buffer (PBS pH 7.4, 4% FBS, 0.1% sodium azide) for 30 minutes on ice. […] After incubation with primary antibody, samples were washed with staining buffer and then incubated with secondary antibody (PE-conjugated anti-human antibody; 1:100) for 30 minutes on ice. After incubation, samples were washed with staining buffer and examined on a Becton Dickinson FACSCalibur flow cytometer (BD Immunocytometry Systems, San Jose, Calif.). Data analysis was performed with Becton Dickinson Cell Quest software and the geometric mean fluorescence intensity (GeoMean) was determined for each sample.
(§2) For the data shown in Table 37, flow cytometry was performed on intact, non-permeabilized cells using the indicated primary monoclonal antibodies. […] The results are reported as GeoMeans. […] For the data shown in the bottom left panel of Table 37, SKMEL2 (melanoma) cells were treated with MEKi (U0126; 10 uM), imatinib (20 uM), p38i (p38 MAPKi SB202190; 50 uM), NH4Cl (ammonium chloride; 20 mM) or CLQ (chloroquine; 20 uM) for 48 hours prior to analysis. For the data shown in the bottom right panel of Table 37, WM2664 (melanoma) cells were treated with MON (monensin) or MMPi (GM6001) for 48 hours prior to analysis.

For test [4], the system named is UACC62 melanoma cells. Briefly: In vitro growth-inhibition/cytotoxicity assay, UACC62 cells. In kind it is cell-based, human. As to conditions: UACC62 cells.
Test [5] relates to GPNMB. Briefly: Immunoblotting for GPNMB on whole-cell lysates of cancer cell lines after drug exposure. Type of test: cell-based, human.
The test system of test [6] is SKMEL2 cells. The settings on record: SKMEL2 cells (FIG. 4C). How it is done: Cells were seeded in tissue culture dishes at a subconfluent density and allowed to attach overnight. The following day, cells were treated with or without U0126 (1 μM) diluted in growth media and incubated for 48 hours. […] After incubation, photomicrographs were taken and adherent cells were trypsinized, mixed with trypan blue dye and counted on a haemocytometer. Only viable cells which excluded trypan blue were counted. For SKMEL2, cells were seeded in 96-well plates after U0126 treatment and assayed after 72 h using the CellTiter-Glo assay according to the manufacturer's instructions (Promega, Madison, Wis.).

Test [7] deals with GPNMB surface expression on SF539 glioblastoma cells. As to the kind of experiment: Flow cytometry of GPNMB surface expression, SF539 cells. As to conditions: SF549, CR011 (anti-GPNMB) primary antibody. In kind it is cell-based, human. How it is done:
as §1, §2

As for `N#CC(=C(/N)Sc1ccccc1N)/C(C#N)=C(\N)Sc1ccccc1N` [Mab U0126], the “expression of MART-1, TYRP-2, TYRP-1, PMEL17” value in test [1] is on record as “induced by MEK inhibition in some cell lines”. The “expression of other targets (MAGEA1, MCSP)” value in test [1] is listed as “either were not effected or even decreased”. Further, the “inhibition of the ERK pathway (phospho-ERK levels)” value was “robust and sustained inhibition” in test [2] (A375 and SKMEL2 cell lines (FIG. 3B)); “transient inhibition” in test [2] (SF539 cells (FIG. 3B)). The “GPNMB surface expression, flow cytometry GeoMean” value came to 14.7 in test [3] (MEKi (U0126) 5 um, 12 h); 16.4 in test [3] (MEKi (U0126) 5 um, 24 h); 52.4 in test [3] (MEKi (U0126) 5 um, 48 h); 18.3 in test [3] (MEKi (U0126) 20 um, 12 h); 22.4 in test [3] (MEKi (U0126) 20 um, 24 h); 84.0 in test [3] (MEKi (U0126) 20 um, 48 h). In addition, the “GPNMB surface expression, flow cytometry GeoMean” value in test [7] (MEKi (U0126) 5 um, 12 h) came to 41.5; in test [7] (MEKi (U0126) 5 um, 24 h), 36.3; in test [7] (MEKi (U0126) 5 um, 48 h) it was 41.5; in test [7] (MEKi (U0126) 20 um, 12 h), 46.3; in test [7] (MEKi (U0126) 20 um, 24 h) it was 39.2. Moreover, the GPNMB surface expression entry in test [3] (A375 melanoma, 12, 24 or 48 hours (Table 37, top)) was “induced GPNMB surface expression”. Moreover, the “sensitization to CR011-vcMMAE by pretreatment, CellTiter-Glo assay (ATP)” value in test [4] is “confirmed”. Besides, the “sensitization to growth-inhibitory activity of CR011-vcMMAE by pretreatment” value in test [4] is listed as “sensitized”. Besides, in test [5], the “GPNMB induction (immunoblotting), kinetics and drug concentration” value was “increased with exposure time”. Moreover, in test [5], the “GPNMB induction compared to other melanoma-associated proteins” value is “most consistently induced”. In test [6], the “sensitization to CR011-vcMMAE by pretreatment” value is reported as “sensitized”.

These data come from patent publication US20140314780A1, “Compositions Using Antibodies Directed to GPNMB and Uses Thereof” (Celldex Therapeutics, Inc., priority 2008, published 2014).
